Experiments:
Assay in all cases: relative viability (nuclei count vs DMSO), 5 days (fraction); higher = more cells survive
Lapatinib + Olaparib = compound: CS(=O)(=O)CCNCc1ccc(-c2ccc3ncnc(Nc4ccc(OCc5cccc(F)c5)c(Cl)c4)c3c2)o1 [Lapatinib] + O=C(c1cc(Cc2n[nH]c(=O)c3ccccc23)ccc1F)N1CCN(C(=O)C2CC2)CC1 [Olaparib] (partner 8 µM)
In short: (§1)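 Relative viability was taken as the ratio of nuclei in treated wells to nuclei in vehicle wells. Lung cancer cell lines in 1536-well plates received compounds by pin tool one day after seeding, either one drug alone or a fixed anchor-drug dose plus five library-drug doses (not always all listed) in √10 steps. Nuclei were counted on 4× images after 5 days of treatment, and values are medians of duplicate plates.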

Wnt-C59 + Tozasertib = compound: CC1=NC=CC(=C1)C2=CC=C(C=C2)CC(=O)NC3=CC=C(C=C3)C4=CN=CC=C4 [Wnt-C59] + Cc1cc(Nc2cc(N3CCN(C)CC3)nc(Sc3ccc(NC(=O)C4CC4)cc3)n2)n[nH]1 [Tozasertib] (partner 0.1 µM)
In short: as §1

Wnt-C59 + Pictilisib = compound: CC1=NC=CC(=C1)C2=CC=C(C=C2)CC(=O)NC3=CC=C(C=C3)C4=CN=CC=C4 [Wnt-C59] + CS(=O)(=O)N1CCN(Cc2cc3nc(-c4cccc5[nH]ncc45)nc(N4CCOCC4)c3s2)CC1 [Pictilisib] (partner 1 µM)
In short: as §1

Lapatinib + Vorinostat = compound: CS(=O)(=O)CCNCc1ccc(-c2ccc3ncnc(Nc4ccc(OCc5cccc(F)c5)c(Cl)c4)c3c2)o1 [Lapatinib] + O=C(CCCCCCC(=O)Nc1ccccc1)NO [Vorinostat] (partner 1 µM)
In short: as §1

What does the source list for UMC-11?
relative viability (Lapatinib + Olaparib; first compound 0.02 µM): 0.299; relative viability (Lapatinib + Olaparib; first compound 0.06325 µM): 0.342; relative viability (Lapatinib + Olaparib; first compound 0.2 µM): 0.347; relative viability (Lapatinib + Olaparib; first compound 0.6325 µM): 0.376; relative viability (Lapatinib + Olaparib; first compound 2 µM): 0.327; relative viability (Wnt-C59 + Tozasertib; first compound 0.001 µM): 0.214; relative viability (Wnt-C59 + Tozasertib; first compound 0.01 µM): 0.197; relative viability (Wnt-C59 + Tozasertib; first compound 0.03162 µM): 0.203; relative viability (Wnt-C59 + Tozasertib; first compound 0.1 µM): 0.226; relative viability (Wnt-C59 + Pictilisib; first compound 0.001 µM): 0.81; relative viability (Wnt-C59 + Pictilisib; first compound 0.01 µM): 0.843; relative viability (Wnt-C59 + Pictilisib; first compound 0.03162 µM): 0.844; relative viability (Wnt-C59 + Pictilisib; first compound 0.1 µM): 0.756; relative viability (Lapatinib + Vorinostat; first compound 0.02 µM): 0.42; relative viability (Lapatinib + Vorinostat; first compound 0.06325 µM): 0.384; relative viability (Lapatinib + Vorinostat; first compound 0.2 µM): 0.39; relative viability (Lapatinib + Vorinostat; first compound 0.6325 µM): 0.367; relative viability (Lapatinib + Vorinostat; first compound 2 µM): 0.321

From the supplement of paper PMC10307832
